Reference: patent publication US20240287138A1, “CYCLIC PEPTIDES FOR INHIBITING TNF RECEPTOR 1 ACTIVITY” (Merck Sharp & Dohme LLC, priority 2023, published 2024)
Numbered stars: 1 amine (or outer) side, 2 acyl side, 3 side chain; on linkers, the order of the positions; unused ones are H or OH. Bridge positions count the residues as written; N and C are the ends. Square brackets hold non-standard residues; d marks the D form. Peptide text beside a SMILES is read from it. * marks the point of attachment. Trp(βS-Me,7-OMe) = COc1cccc2c([C@H](C)[C@H](N)C(=O)O)c[nH]c12; Trp(1-CH2COOH) = N[C@@H](Cc1cn(CC(=O)O)c2ccccc12)C(=O)O; Trp(βS-Me) = C[C@@H](c1c[nH]c2ccccc12)[C@H](N)C(=O)O; Trp(7-CN) = N#Cc1cccc2c(C[C@H](N)C(=O)O)c[nH]c12; Trp(7-Cl) = N[C@@H](Cc1c[nH]c2c(Cl)cccc12)C(=O)O; X55 = O=C([C@H]1C[C@H](c2nn[nH]n2)CN1[*:1])[*:2]; Phe(4-CONH2) = NC(=O)c1ccc(C[C@H](N)C(=O)O)cc1; Phe(4-COOH) = N[C@@H](Cc1ccc(C(=O)O)cc1)C(=O)O; Phe(4-CH2NH2) = NCc1ccc(C[C@H](N)C(=O)O)cc1; X46 = Nc1ncc(C[C@H](N[*:1])C(=O)[*:2])cn1; Pip(5R-OH) = O=C(O)[C@@H]1CC[C@@H](O)CN1; αMeW = C[C@](N)(Cc1c[nH]c2ccccc12)C(=O)O; Lys(N3) = [N-]=[N+]=NCCCC[C@H](N)C(=O)O; X1 = O=C([C@@H]1CC[C@H](N[*:1])C1)[*:2]; 2Nal = N[C@@H](Cc1ccc2ccccc2c1)C(=O)O; 4Pal = N[C@@H](Cc1ccncc1)C(=O)O; dHyp = O=C(O)[C@H]1C[C@H](O)CN1; Ahp(2) = CCCCC[C@H](N)C(=O)O; αMeS = C[C@](N)(CO)C(=O)O; Carboxymethyl = O=C(O)C*; Nle = CCCC[C@H](N)C(=O)O; Dap = NC[C@H](N)C(=O)O; Sar = CNCC(=O)O

Experiments:
[1] = biological target: T1, TNFα-induced NF-κB signal transduction pathway (TNFR1 signaling) in THP-1 cells (Homo sapiens, UniProt P19438); assay: THP-1 Lucia NF-κB reporter cell assay, inhibition of TNFα-induced NF-κB signaling; assay type: cell-based; conditions: THP-1 NF-κB Lucia reporter cells, 10 ng/mL TNFα, 16-18 h, secreted luciferase; read-out: THP-1 IC50
T1 sequence (P19438 30-455): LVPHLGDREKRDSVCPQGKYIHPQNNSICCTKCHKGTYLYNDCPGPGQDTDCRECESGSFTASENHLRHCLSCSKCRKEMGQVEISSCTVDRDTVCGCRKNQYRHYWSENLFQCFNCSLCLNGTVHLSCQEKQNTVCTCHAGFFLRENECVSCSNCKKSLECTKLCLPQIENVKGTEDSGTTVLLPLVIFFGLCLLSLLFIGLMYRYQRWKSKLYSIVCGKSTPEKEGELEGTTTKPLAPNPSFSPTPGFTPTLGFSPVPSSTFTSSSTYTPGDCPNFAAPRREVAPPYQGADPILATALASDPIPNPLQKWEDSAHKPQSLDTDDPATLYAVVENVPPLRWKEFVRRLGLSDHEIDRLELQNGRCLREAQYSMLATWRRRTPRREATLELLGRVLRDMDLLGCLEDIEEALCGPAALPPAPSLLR
Method in brief: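 Macrocyclic peptides were preincubated 1 h at 37 °C with THP-1 NF-κB-Lucia reporter cells (20,000 cells/well) in antibiotic-free RPMI 1640/10% FBS, then stimulated with 10 ng/mL human TNFα overnight (16-18 h). Secreted luciferase in supernatant was read by luminescence; IC50 from 4-parameter logistic fits.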

[2] = biological target: T2, human soluble TNFR1 (sTNFR1) (Homo sapiens, UniProt P19438); assay: Human sTNFR1-peptide displacement assay (LanthaScreen Eu TR-FRET binding assay)
T2 construct: made in house; host or cells: Sf21 (baculovirus)
T2 sequence (P19438 with tags, fused parts or gaps): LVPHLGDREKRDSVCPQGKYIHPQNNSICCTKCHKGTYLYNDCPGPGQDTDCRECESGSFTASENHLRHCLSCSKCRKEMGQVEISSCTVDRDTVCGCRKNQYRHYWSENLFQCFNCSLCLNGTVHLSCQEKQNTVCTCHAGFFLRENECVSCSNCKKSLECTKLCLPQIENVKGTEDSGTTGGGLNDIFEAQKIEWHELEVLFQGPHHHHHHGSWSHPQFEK
Method: A. Procedure for Human sTNFR1-Peptide Displacement Assay
The affinity was determined using LanthaScreen Eu-based time-resolved fluorescence resonance energy transfer (TR-FRET)-based binding assay.
A TR-FRET assay measuring the displacement of biotinylated peptide SEQ ID NO. 1 from human soluble TNFR1 (sTNFR1) in a pre-formed complex by a macrocyclic peptide yields the affinity (Kd^app) of the cyclic peptide for sTNFR1. The reagents for the assay include: the C′-terminally 6His-tagged sTNFR1 (residues 1-211) protein purified from a Sf21 baculovirus expression system, the biotin-tagged B0372 peptide described in section “Preparation of Final Compounds”, part E, the LanthaScreen™ anti-His Tag Europium donor (Life Technologies Corporation (San Diego, CA), cat. #PV5597), and a streptavidin-conjugate Alexa Fluor™ 647 acceptor (Invitrogen (Waltham, MA), cat. #S32357). Time-resolved TR-FRET is achieved when sTNFR1 is bound to biotinylated peptide SEQ ID NO. 1 through coupling of the donor and acceptor FRET pair.
100 nM biotinylated peptide SEQ ID NO. […] 100 nM biotinylated peptide SEQ ID NO. 1 was chosen as it reflects the ˜Kd for this complex. After 30 min at ambient temperature, each test peptide (2 mM stock in DMSO) is titrated in a 20 point, ˜3-fold discrete dose-response using an acoustic-dispense liquid handler. Specifically, 80 nL of peptide/DMSO is transferred into a ProxiPlate-384 Plus 384-well assay plate (PerkinElmer, cat. #6008289). To this plate, 8 μL of the previously formed sTNFR 1-biotinylated peptide SEQ ID NO. 1 complex is added and allowed to reach binding equilibrium with the test peptide at ambient temperature for 90 min.
The TR-FRET signal is measured with the following EnVision® settings: excitation laser at 337 nm; emission1=615 nm, emission2=665 nm, LANCE/DELFIA dichroic mirror, delay time=[…]. The signal of each well is determined as the ratio of the emission at 665 nm to that at 615 nm. Percent displacement is determined by normalization to control wells containing DMSO (0%) or a saturating concentration of a displaceable peptide (100%). The %-effect as a function of peptide concentration is fit to a five-parameter logistic fit based on the Morrison equation to account for tight binding kinetics.

Row | Compound | IC50 [1] | Kd [2] | IC50 [2]
1 | CCCC[C@@H]1NC(=O)[C@@H]2CC[C@@H](C2)NC(=O)[C@H]([C@@H](C)c2c[nH]c3c(OC)cccc23)NC(=O)CN(C)C(=O)[C@H](Cc2ccc(OCC(=O)O)cc2)NC(=O)[C@H](Cc2cnc(N)nc2)NC(=O)[C@](C)(CO)NC(=O)[C@H](Cc2c[nH]c3c(C#N)cccc23)NC(=O)[C@H](Cc2ccc(OCC(=O)O)cc2)NC(=O)[C@H](CC(N)=O)NC(=O)[C@H]2C[C@H](O)CN2C(=O)[C@H](Cc2cn(CC(=O)O)c3ccccc23)NC(=O)[C@@H]2CC[C@@H](O)CN2C(=O)[C@H](Cc2ccncc2)NC1=O [SEQ ID NO. 6] (cyclo([4Pal][Pip(5R-OH)][Trp(1-CH2COOH)][dHyp]NY(Carboxymethyl)[Trp(7-CN)][αMeS][X46]Y(Carboxymethyl)[Sar][Trp(βS-Me,7-OMe)][X1][Nle])) | 0.8 nM | 0.08 nM | 
2 | CCCC[C@@H]1NC(=O)[C@@H]2CC[C@@H](C2)NC(=O)[C@H]([C@@H](C)c2c[nH]c3c(OC)cccc23)NC(=O)CN(C)C(=O)[C@H](Cc2ccc(C(=O)O)cc2)NC(=O)[C@H](Cc2ccc(C(N)=O)cc2)NC(=O)[C@](C)(CO)NC(=O)[C@H](Cc2c[nH]c3c(Cl)cccc23)NC(=O)[C@H](Cc2ccc(C(=O)O)cc2)NC(=O)[C@H](CC(N)=O)NC(=O)[C@H]2C[C@H](c3nn[nH]n3)CN2C(=O)[C@H](Cc2c[nH]c3ccccc23)NC(=O)[C@@H]2CC[C@@H](O)CN2C(=O)[C@H](Cc2ccncc2)NC1=O [SEQ ID NO. 11] (cyclo([4Pal][Pip(5R-OH)]W[X55]N[Phe(4-COOH)][Trp(7-Cl)][αMeS][Phe(4-CONH2)][Phe(4-COOH)][Sar][Trp(βS-Me,7-OMe)][X1][Nle])) | 0.7 nM | 0.07 nM | 
3 | CCCCC[C@@H]1NC(=O)CSC[C@@H](C(N)=O)NC(=O)[C@](C)(Cc2c[nH]c3ccccc23)NC(=O)CN(C)C(=O)[C@H](Cc2c[nH]cn2)NC(=O)[C@H](Cc2ccc(C(=O)O)cc2)NC(=O)[C@](C)(CO)NC(=O)[C@H](Cc2ccc3ccccc3c2)NC(=O)[C@H](Cc2ccc(C(=O)O)cc2)NC(=O)[C@H](CC(N)=O)NC(=O)[C@H]2CCCN2C(=O)[C@H]([C@@H](C)c2c[nH]c3ccccc23)NC(=O)[C@H](CO)NC(=O)[C@H](Cc2ccncc2)NC1=O [SEQ ID NO. 237] ({CH2CO}-[Ahp(2)][4Pal]S[Trp(βS-Me)][dP]N[Phe(4-COOH)][2Nal][αMeS][Phe(4-COOH)]H[Sar][αMeW]C-NH2; thioether N-14) |  |  | 13 nM
4 | C[C@@H](c1c[nH]c2ccccc12)[C@@H]1NC(=O)[C@H](CN)NC(=O)[C@H](Cc2ccncc2)NC(=O)[C@H](CCCCN=[N+]=[N-])NC(=O)CSC[C@@H](C(N)=O)NC(=O)[C@](C)(Cc2c[nH]c3ccccc23)NC(=O)CN(C)C(=O)[C@H](Cc2ccc(CN)cc2)NC(=O)[C@H](Cc2ccc(C(=O)O)cc2)NC(=O)[C@](C)(CO)NC(=O)[C@H](Cc2c[nH]c3c(Cl)cccc23)NC(=O)[C@H](Cc2ccncc2)NC(=O)[C@H](CC(N)=O)NC(=O)[C@H]2CCCN2C1=O [SEQ ID NO. 245] ({CH2CO}-[Lys(N3)][4Pal][Dap][Trp(βS-Me)][dP]N[4Pal][Trp(7-Cl)][αMeS][Phe(4-COOH)][Phe(4-CH2NH2)][Sar][αMeW]C-NH2; thioether N-14) |  |  | 0.95 nM
